Reference: PubChem BioAssay (NCI)
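In this assay, cells in 96-well plates receive the compound at five concentrations for 48 hours. Endpoints are linearly interpolated between the surrounding concentrations. The concentration for 50% growth inhibition is given as GI50. TGI is the concentration that stops growth completely.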

Legend:
Test in all cases: growth of human tumour cells (NCI), 48 h
SK-OV-3 ovarian = system: SK-OV-3 ovarian
786-0 renal = system: 786-0 renal
HOP-92 NSCLC = system: HOP-92 NSCLC
ACHN renal = system: ACHN renal
BT-549 breast = system: BT-549 breast
SF-539 CNS = system: SF-539 CNS
KM12 colon = system: KM12 colon
HT29 colon = system: HT29 colon
SK-MEL-5 melanoma = system: SK-MEL-5 melanoma
SK-MEL-2 melanoma = system: SK-MEL-2 melanoma
COLO 205 colon = system: COLO 205 colon
UACC-257 melanoma = system: UACC-257 melanoma
RPMI-8226 leukemia = system: RPMI-8226 leukemia
MDA-MB-231 breast = system: MDA-MB-231 breast
DU-145 prostate = system: DU-145 prostate
HCT-15 colon = system: HCT-15 colon
SNB-75 CNS = system: SNB-75 CNS
OVCAR-5 ovarian = system: OVCAR-5 ovarian
CCRF-CEM leukemia = system: CCRF-CEM leukemia
CAKI-1 renal = system: CAKI-1 renal
K-562 leukemia = system: K-562 leukemia
HL-60(TB) leukemia = system: HL-60(TB) leukemia
A498 renal = system: A498 renal
SW-620 colon = system: SW-620 colon
UACC-62 melanoma = system: UACC-62 melanoma
SK-MEL-28 melanoma = system: SK-MEL-28 melanoma
SR leukemia = system: SR leukemia
NCI-H23 lung = system: NCI-H23 lung
NCI-H226 lung = system: NCI-H226 lung
MDA-MB-435 = system: MDA-MB-435
OVCAR-8 ovarian = system: OVCAR-8 ovarian
TK-10 renal = system: TK-10 renal
HOP-62 NSCLC = system: HOP-62 NSCLC
OVCAR-4 ovarian = system: OVCAR-4 ovarian
EKVX NSCLC = system: EKVX NSCLC
MALME-3M melanoma = system: MALME-3M melanoma
SN12C renal = system: SN12C renal
MCF7 breast = system: MCF7 breast
NCI/ADR-RES ovarian = system: NCI/ADR-RES ovarian
HCT-116 colon = system: HCT-116 colon
SF-295 CNS = system: SF-295 CNS
UO-31 renal = system: UO-31 renal
HS 578T breast = system: HS 578T breast
NCI-H522 lung = system: NCI-H522 lung
OVCAR-3 ovarian = system: OVCAR-3 ovarian
SF-268 CNS = system: SF-268 CNS
A549 NSCLC = system: A549 NSCLC
HCC-2998 colon = system: HCC-2998 colon
U251 CNS = system: U251 CNS
SNB-19 CNS = system: SNB-19 CNS
LOX IMVI melanoma = system: LOX IMVI melanoma
M14 melanoma = system: M14 melanoma
MOLT-4 leukemia = system: MOLT-4 leukemia
T-47D breast = system: T-47D breast
PC-3 prostate = system: PC-3 prostate
NCI-H460 lung = system: NCI-H460 lung
IGROV1 ovarian = system: IGROV1 ovarian

SMILES: OCC1OC(n2cnc3cc(Cl)c(Cl)cc32)C(O)C1O (stereo not drawn)
- GI50 (SK-OV-3 ovarian): 37.9 µM
- TGI (SK-OV-3 ovarian): > 100 µM
- GI50 (786-0 renal): 23.6 µM
- TGI (786-0 renal): > 68.3 µM
- GI50 (HOP-92 NSCLC): 35.2 µM
- TGI (HOP-92 NSCLC): 99 µM
- GI50 (ACHN renal): 12.7 µM
- TGI (ACHN renal): 34.6 µM
- GI50 (BT-549 breast): 23 µM
- TGI (BT-549 breast): 58.4 µM
- GI50 (SF-539 CNS): 19.9 µM
- TGI (SF-539 CNS): 44.7 µM
- GI50 (KM12 colon): 28.3 µM
- TGI (KM12 colon): > 100 µM
- GI50 (HT29 colon): 33.6 µM
- TGI (HT29 colon): > 100 µM
- GI50 (SK-MEL-5 melanoma): 18.5 µM
- TGI (SK-MEL-5 melanoma): 37.6 µM
- GI50 (SK-MEL-2 melanoma): 14.3 µM
- TGI (SK-MEL-2 melanoma): 35.9 µM
- GI50 (COLO 205 colon): 23.8 µM
- TGI (COLO 205 colon): > 84.5 µM
- GI50 (UACC-257 melanoma): 18.7 µM
- TGI (UACC-257 melanoma): 40.7 µM
- GI50 (RPMI-8226 leukemia): 30 µM
- TGI (RPMI-8226 leukemia): > 72.5 µM
- GI50 (MDA-MB-231 breast): 21.2 µM
- TGI (MDA-MB-231 breast): 60.1 µM
- GI50 (DU-145 prostate): 17.2 µM
- TGI (DU-145 prostate): > 61.2 µM
- GI50 (HCT-15 colon): 14.8 µM
- TGI (HCT-15 colon): 37.5 µM
- GI50 (SNB-75 CNS): 31.2 µM
- TGI (SNB-75 CNS): > 74.2 µM
- GI50 (OVCAR-5 ovarian): 8.01 µM
- TGI (OVCAR-5 ovarian): 36.5 µM
- GI50 (CCRF-CEM leukemia): 38.8 µM
- TGI (CCRF-CEM leukemia): > 100 µM
- GI50 (CAKI-1 renal): 14.2 µM
- TGI (CAKI-1 renal): 47.8 µM
- GI50 (K-562 leukemia): 44.8 µM
- TGI (K-562 leukemia): > 100 µM
- GI50 (HL-60(TB) leukemia): 20 µM
- TGI (HL-60(TB) leukemia): > 100 µM
- GI50 (A498 renal): > 47.3 µM
- TGI (A498 renal): > 67.7 µM
- GI50 (SW-620 colon): 30.3 µM
- TGI (SW-620 colon): > 76.7 µM
- GI50 (UACC-62 melanoma): 12.2 µM
- TGI (UACC-62 melanoma): 26.6 µM
- GI50 (SK-MEL-28 melanoma): 29.3 µM
- TGI (SK-MEL-28 melanoma): > 100 µM
- GI50 (SR leukemia): 648 nM
- GI50 (NCI-H23 lung): 18.8 µM
- TGI (NCI-H23 lung): 42.3 µM
- GI50 (NCI-H226 lung): 8.32 µM
- TGI (NCI-H226 lung): 35.3 µM
- GI50 (MDA-MB-435): 24 µM
- TGI (MDA-MB-435): 82.6 µM
- GI50 (OVCAR-8 ovarian): 34.7 µM
- TGI (OVCAR-8 ovarian): > 72.2 µM
- GI50 (TK-10 renal): 29.3 µM
- TGI (TK-10 renal): > 86.4 µM
- GI50 (HOP-62 NSCLC): 9.13 µM
- TGI (HOP-62 NSCLC): 35.4 µM
- GI50 (OVCAR-4 ovarian): 62.8 µM
- TGI (OVCAR-4 ovarian): > 100 µM
- GI50 (EKVX NSCLC): 20.8 µM
- TGI (EKVX NSCLC): 50.8 µM
- GI50 (MALME-3M melanoma): 25.5 µM
- TGI (MALME-3M melanoma): 67.5 µM
- GI50 (SN12C renal): 20.6 µM
- TGI (SN12C renal): 58.4 µM
- GI50 (MCF7 breast): 21.5 µM
- TGI (MCF7 breast): 75.9 µM
- GI50 (NCI/ADR-RES ovarian): 18.8 µM
- TGI (NCI/ADR-RES ovarian): 56.6 µM
- GI50 (HCT-116 colon): 18 µM
- TGI (HCT-116 colon): 44.2 µM
- GI50 (SF-295 CNS): 24.6 µM
- TGI (SF-295 CNS): 85.2 µM
- GI50 (UO-31 renal): 15.8 µM
- TGI (UO-31 renal): 40 µM
- GI50 (HS 578T breast): 27 µM
- TGI (HS 578T breast): > 96.3 µM
- GI50 (NCI-H522 lung): 16.3 µM
- TGI (NCI-H522 lung): 54.4 µM
- GI50 (OVCAR-3 ovarian): 22.7 µM
- TGI (OVCAR-3 ovarian): 72.3 µM
- GI50 (SF-268 CNS): 30.7 µM
- TGI (SF-268 CNS): > 87.9 µM
- GI50 (A549 NSCLC): 18.8 µM
- TGI (A549 NSCLC): > 72.4 µM
- GI50 (HCC-2998 colon): 12.7 µM
- TGI (HCC-2998 colon): 27 µM
- GI50 (U251 CNS): 13.8 µM
- TGI (U251 CNS): 37.5 µM
- GI50 (SNB-19 CNS): 25.3 µM
- TGI (SNB-19 CNS): > 100 µM
- GI50 (LOX IMVI melanoma): 12.1 µM
- TGI (LOX IMVI melanoma): 29 µM
- GI50 (M14 melanoma): 9.36 µM
- TGI (M14 melanoma): 32.5 µM
- GI50 (MOLT-4 leukemia): 3.85 µM
- TGI (MOLT-4 leukemia): > 41.3 µM
- GI50 (T-47D breast): 26.1 µM
- TGI (T-47D breast): > 71.9 µM
- GI50 (PC-3 prostate): 44.5 µM
- TGI (PC-3 prostate): > 100 µM
- GI50 (NCI-H460 lung): 30 µM
- TGI (NCI-H460 lung): > 100 µM
- GI50 (IGROV1 ovarian): 12.5 µM
- TGI (IGROV1 ovarian): 34.4 µM
